According to patent US7585854B2, “Method for treating endometriosis” (Tochigi Institute of Clinical Pathology, priority 2000, dated 2009):
Where a name gives a salt, the structure may show the parent alone.

Tested on: endometriosis model rats
Test: Therapeutic effect in endometriosis model rats (uterine tissue autotransplanted to peritoneum; lesion observed by light and electron microscopy)
Assay type: in vivo, Sprague-Dawley rats (female)
Conditions: oral; for invasion of mast cells compared with Comparative Example 1 (non-treated model rats): 0.04 mg/kg bodyweight per day for 6 days from 24 hours after model preparation, lesion sampled at day 7; for therapy of endometriosis (overall conclusion) / apoptosis of fibroblast cells / proliferation of the interstitial cells: 0.04 mg/kg bodyweight per day for 6 days, day 7; for apoptosis of fibroblast cells / proliferation of the interstitial cells: light and electron microscope
Procedure: Endometriosis model rats were prepared by the method described in Michael W. Vernon et al., FERTILITY AND STERILITY, Vol. 44, No. 5, November 1985. That is, endometriosis model rats were prepared as follows: Sprague-Dawley rats (female) of 8 weeks old were acclimatized for 2 weeks under 12 hours light-dark condition. From each rat, right uterine horn was excised under general anesthesia with sevoflurane and ketamine hydrochloride, and a tissue piece sizing 5 mm×5 mm was prepared therefrom. The tissue piece was subjected to autotransplantation such that the endometrium surface is attached to peritoneum.
Seven days after the preparation of the model rats, at which the model lesion reached its peak, the peritoneum tissue including the graft up to the abdominal muscle was excised to obtain a lesion sample. From the thus obtained samples, light microscope specimens (hematoxylin-eosin staining, toluidine blue staining) and electron microscope specimens (uranium-lead double staining) were prepared, and observations with an light microscope (the magnifications were 4× for hematoxylineosin-stained specimens, and 20× for toluidine blue-stained specimens, respectively), and with an electron microscope were carried out as in Reference Example 1.
Endometriosis model rats were prepared by the same method as in Comparative Example 1. From 24 hours after the preparation of the endometriosis model rats, an antiallergic agent (trademark “Alesion Tablet” produced by Boehringer Ingelheim) containing epinastine hydrochloride as the active component was orally administered to the rats for 6 days at a dose of 0.04 mg/kg bodyweight per day in terms of epinastine hydrochloride. Seven days after the preparation of the model rats, at which the model lesion reached its peak, the peritoneum tissues including the graft up to the abdominal muscle were excised to obtain lesion samples.
The same procedures as in Example 1 were repeated except that an antiallergic agent containing ketotifen fumarate as the active component (trademark “Zaditen” produced by Ciba-Geigy Japan Limited) was administered in place of the antiallergic agent containing epinastine hydrochloride as an active component.
The same procedures as in Example 1 were repeated except that an antiallergic agent containing pranlukast hydrate as the active component (trademark “ONON CAPSULE” produced by ONO PHARMACEUTICAL CO.,LTD.) was administered in place of the antiallergic agent containing epinastine hydrochloride as an active component, and that the administration dose per day was 9 mg/kg in terms of pranlukast hydrate.

Row | Compound | invasion of mast cells compared with Comparative Example 1 (non-treated model rats) | therapy of endometriosis (overall conclusion) | apoptosis of fibroblast cells | proliferation of the interstitial cells
1 | NC1=NCC2c3ccccc3Cc3ccccc3N12 (centres unmarked) [epinastine, epinastine hydrochloride] | apparently reduced | effective | observed | prominent inhibition
2 | CN1CCC(=C2c3ccccc3CC(=O)c3sccc32)CC1 [ketofetin, ketotifen fumarate] | apparently reduced | effective | observed | prominent inhibition
